Like-named read-outs stand apart in the source and are kept apart here.
Assay type: physicochemical
Description: This Example studies the solubility and stability of acyclovir in various topical excipients. Table 1 and Table 2 below indicate the various excipients that solubility was tested in and stability of acyclovir in these excipients, respectively. [table]

Saturated solubility of Acyclovir (pH 4): 0.10 (0.10-0.10) % w/w
Saturated solubility of Acyclovir (pH 6): 0.10 (0.09-0.10) % w/w
Compound: Nc1nc2c(ncn2COCCO)c(=O)[nH]1 [Acyclovir]

Reference: US11246872B2, “Topical acyclovir formulations and uses thereof” (priority 2019, dated 2022)
